*1 amine or outer side, *2 acyl side, *3 side chain or, on linkers, in order; H or OH if unused. Where a SMILES comes first, the peptide text is derived from it. Bridges are numbered along the chain shown (N, C = ends). Side-chain parts run from the residue outwards. [ ]: non-standard residue; d: D form. The star is where a group is joined. C20 diacid = O=C(O)CCCCCCCCCCCCCCCCCCC(=O)*; γGlu = O=C(O)[C@H](CCC(=O)[*:2])N[*:1]; AEEA = NCCOCCOCC(=O)O; Aib = CC(C)(N)C(=O)O
Experiments:
[1] = target: T1, human Glucagon receptor (GCGR) (Homo sapiens, UniProt P47871); assay: cAMP accumulation assay, CHO-K1 cells expressing human GCGR; format: cell-based; conditions: mean pEC50, Table 10
T1 construct: A cDNA fragment encoding the full-length open reading frame of the human GCGR; expressed in transfected cells; host or cells: CHO-K1, pcDNA3.1+, Lipofectamine 2000
T1 sequence (P47871 26-477): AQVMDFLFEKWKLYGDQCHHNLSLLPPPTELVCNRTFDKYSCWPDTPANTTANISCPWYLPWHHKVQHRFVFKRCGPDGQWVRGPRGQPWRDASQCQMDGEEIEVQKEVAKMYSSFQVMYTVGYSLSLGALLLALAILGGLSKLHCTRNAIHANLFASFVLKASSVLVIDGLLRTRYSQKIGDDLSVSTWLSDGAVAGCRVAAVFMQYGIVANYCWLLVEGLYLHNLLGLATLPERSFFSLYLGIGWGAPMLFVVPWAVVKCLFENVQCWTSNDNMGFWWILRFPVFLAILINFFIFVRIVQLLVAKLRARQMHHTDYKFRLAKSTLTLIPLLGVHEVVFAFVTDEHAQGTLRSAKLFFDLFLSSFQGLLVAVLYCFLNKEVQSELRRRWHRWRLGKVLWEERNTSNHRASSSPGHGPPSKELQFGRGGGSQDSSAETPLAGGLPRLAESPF
Text: (§1) In the presence of the non-specific cAMP/cGMP phosphodiesterase inhibitor, 3-isobutyl-1-methylxanthine (IBMX), accumulating cAMP can be measured in vitro using common detection methods. Thus, it is possible to estimate an in vitro potency (pEC50) for peptides activating each of these receptors using fit dose-response curves for cAMP accumulation.
A cDNA fragment encoding the full-length open reading frame of the cynomolgus monkey GLP-1R (Genebank accession #XM_028847603 was cloned into pcDNA3.1+ for expression in CHO-K1 cells. A cDNA fragment encoding the full-length open reading frame of the human GCGR (Genebank accession #NM_000160 was cloned into pcDNA3.1+ for expression in CHO-K1 cells. A cDNA fragment encoding the full-length open reading frame of the rat GCGR (Genebank accession #NM_12091 was cloned into pcDNA3.1+ for expression in CHO-K1 cells. A cDNA fragment encoding the full-length open reading frame of the cynomolgus monkey GCGR (Genebank accession #XM_005585255 was cloned into pcDNA3.1+ for expression in CHO-K1 cells.
(§2) On day 1, CHO-K1 cells were plated at 1.5 million cells per T75 flask in 90% F12-K media supplemented with 10% FBS. On day 3 cells were transfected with 40 mcg of each expression plasmid using Lipofectamine 2000 transfection reagent. On day 5, cells were dispensed at 1000 cells per well in white 384-well OptiPlates in 5 mcL of assay buffer consisting of 1×HBSS, 5 mM HEPES, 0.5 mM IBMX, and 0.1% casein.
(§3) Peptides were serially diluted 4-fold in assay buffer to final concentrations ranging from 1×10^−9 M to 9.5×10^−16 M. Two assay controls consisting of 50 mcM forskolin (cAMP system maximum) or assay buffer only (cAMP system minimum) were also prepared. Five microliters of each peptide-concentration, or assay control, was added to triplicate wells and incubated for thirty minutes at room temperature. During this incubation step a 4× europium labelled cAMP tracer solution and a 4× Ulight®-anti-cAMP solution (consisting of an anti-cAMP monoclonal antibody labelled with Ulight™ dye) was prepared according to the manufacturer's protocol (PerkinElmer LANCE Ultra cAMP kit). Following this incubation, 5 mcL europium labelled cAMP and 5 mcL Ulight anti-cAMP antibody was added to each well. The plate was covered to prevent evaporation and incubated for 60 minutes at room temperature in the dark. Plates were read on an Envision fluorescent plate reader (PerkinElmer).
(§4) Test values were first normalized to the system maximum and system minimum averaged values in Excel using the formula: (test value−system min average)/(system max average -system min average)*100. Normalized test values represent a baseline corrected percentage of the system maximum cAMP response induced by forskolin. Data from up to 3 replicate tests were analyzed for each peptide. Potency values were estimated using GraphPad Prism software (v7.04) by fitting data to a 4-parameter logistic curve model: Y=Bottom+(Top−Bottom)/(1+10^((LogEC50−X))). The Hill slope was constrained to 1.0. EC50 values were converted to pEC50 values using the formula: pEC50=−Log (EC50).

[2] = target: T2, human GLP-1 receptor (GLP-1R) (Homo sapiens, UniProt P43220); assay: cAMP accumulation assay, CHO-K1 cells stably expressing human GLP-1R; format: cell-based; conditions: cAMP accumulation, mean pEC50, Table 10
T2 construct: expressed in transfected cells
T2 sequence (P43220 24-463): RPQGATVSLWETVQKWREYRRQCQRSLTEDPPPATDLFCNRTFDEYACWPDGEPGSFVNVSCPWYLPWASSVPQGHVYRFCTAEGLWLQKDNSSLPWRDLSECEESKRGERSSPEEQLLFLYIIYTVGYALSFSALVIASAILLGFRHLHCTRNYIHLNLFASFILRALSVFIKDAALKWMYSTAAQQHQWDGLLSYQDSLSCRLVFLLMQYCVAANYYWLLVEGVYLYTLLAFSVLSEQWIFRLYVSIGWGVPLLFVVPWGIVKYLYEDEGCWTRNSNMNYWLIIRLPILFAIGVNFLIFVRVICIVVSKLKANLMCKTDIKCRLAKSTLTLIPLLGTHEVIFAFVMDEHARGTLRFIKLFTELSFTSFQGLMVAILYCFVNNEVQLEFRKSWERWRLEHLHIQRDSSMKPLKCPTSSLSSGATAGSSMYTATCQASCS
Method: as §1
CHO-K1 cells stably expressing human GLP-1R (Genebank accession #NM_002062) were grown in 90% F12-K media supplemented with 10% FBS and 250 μg/ml G418.
as §2, §3, §4

SMILES	EC50 [1] [nM]	EC50 [2] [nM]
CC(C)C[C@H](NC(=O)[C@H](Cc1ccc(O)cc1)NC(=O)[C@H](CCCCN)NC(=O)[C@H](CO)NC(=O)[C@H](Cc1ccc(O)cc1)NC(=O)[C@H](CC(=O)O)NC(=O)[C@H](CO)NC(=O)[C@@H](NC(=O)[C@H](Cc1ccccc1)NC(=O)[C@@H](NC(=O)CNC(=O)[C@H](Cc1c[nH]cn1)NC(=O)[C@H](CO)NC(=O)[C@@H](N)Cc1ccc(O)cc1)[C@@H](C)O)[C@@H](C)O)C(=O)N[C@@H](CC(=O)O)C(=O)N[C@@H](CCCCNC(=O)CC[C@H](NC(=O)CC[C@H](NC(=O)COCCOCCNC(=O)CCCCCCCCCCCCCCCCCCC(=O)O)C(=O)O)C(=O)O)C(=O)N[C@@H](CCCCN)C(=O)N[C@@H](Cc1ccc(O)cc1)C(=O)N[C@@H](C)C(=O)N[C@@H](CCC(N)=O)C(=O)N[C@@H](CCC(=O)O)C(=O)N[C@@H](Cc1ccccc1)C(=O)NC(C)(C)C(=O)N[C@@H](CCC(N)=O)C(=O)N[C@@H](Cc1c[nH]c2ccccc12)C(=O)N[C@@H](CC(C)C)C(=O)N[C@@H](CCC(=O)O)C(=O)N[C@@H](CC(=O)O)C(=O)N[C@@H](CCC(=O)O)C(=O)N1CCC[C@H]1C(=O)N[C@@H](CO)C(=O)N[C@@H](CO)C(=O)NCC(=O)N[C@@H](C)C(=O)N1CCC[C@H]1C(=O)N1CCC[C@H]1C(=O)N1CCC[C@H]1C(=O)N[C@@H](CO)C(=O)O [Compound A7] (H-YSHGTFTSDYSKYLDK([γGlu-γGlu-AEEA-C20 diacid])KYAQEF[Aib]QWLEDEPSSGAPPPS-OH; N-terminus assumed)	0.02	> 1
CC(C)C[C@H](NC(=O)[C@H](Cc1ccc(O)cc1)NC(=O)[C@H](CCCCN)NC(=O)[C@H](CO)NC(=O)[C@H](Cc1ccc(O)cc1)NC(=O)[C@H](CC(=O)O)NC(=O)[C@H](CO)NC(=O)[C@@H](NC(=O)[C@H](Cc1ccccc1)NC(=O)[C@@H](NC(=O)CNC(=O)[C@H](Cc1c[nH]cn1)NC(=O)[C@H](CO)NC(=O)[C@@H](N)Cc1ccc(O)cc1)[C@@H](C)O)[C@@H](C)O)C(=O)N[C@@H](CC(=O)O)C(=O)N[C@@H](CCCCNC(=O)CC[C@H](NC(=O)CC[C@H](NC(=O)COCCOCCNC(=O)CCCCCCCCCCCCCCCCCCC(=O)O)C(=O)O)C(=O)O)C(=O)N[C@@H](CCCCN)C(=O)N[C@@H](Cc1ccc(O)cc1)C(=O)N[C@@H](C)C(=O)N[C@@H](CCC(N)=O)C(=O)N[C@@H](CCC(=O)O)C(=O)N[C@@H](Cc1ccccc1)C(=O)NC(C)(C)C(=O)N[C@@H](CCC(=O)O)C(=O)N[C@@H](Cc1c[nH]c2ccccc12)C(=O)N[C@@H](CC(C)C)C(=O)N[C@@H](CCC(=O)O)C(=O)N[C@@H](CC(=O)O)C(=O)N[C@@H](CCC(=O)O)C(=O)N1CCC[C@H]1C(=O)N[C@@H](CO)C(=O)N[C@@H](CO)C(=O)NCC(=O)N[C@@H](C)C(=O)N1CCC[C@H]1C(=O)N1CCC[C@H]1C(=O)N1CCC[C@H]1C(=O)N[C@@H](CO)C(=O)O [Compound A8] (H-YSHGTFTSDYSKYLDK([γGlu-γGlu-AEEA-C20 diacid])KYAQEF[Aib]EWLEDEPSSGAPPPS-OH; N-terminus assumed)	0.126	> 1
CC(C)C[C@H](NC(=O)[C@H](Cc1ccc(O)cc1)NC(=O)[C@H](CCCCN)NC(=O)[C@H](CO)NC(=O)[C@H](Cc1ccc(O)cc1)NC(=O)[C@H](CC(=O)O)NC(=O)[C@H](CO)NC(=O)[C@@H](NC(=O)[C@H](Cc1ccccc1)NC(=O)[C@@H](NC(=O)CNC(=O)[C@H](Cc1c[nH]cn1)NC(=O)[C@H](CO)NC(=O)[C@@H](N)Cc1ccc(O)cc1)[C@@H](C)O)[C@@H](C)O)C(=O)N[C@@H](CC(=O)O)C(=O)N[C@@H](CCCCNC(=O)CC[C@H](NC(=O)CC[C@H](NC(=O)COCCOCCNC(=O)CCCCCCCCCCCCCCCCCCC(=O)O)C(=O)O)C(=O)O)C(=O)N[C@@H](CCCCN)C(=O)N[C@@H](Cc1ccc(O)cc1)C(=O)N[C@@H](C)C(=O)N[C@@H](CCC(N)=O)C(=O)N[C@@H](CCC(=O)O)C(=O)N[C@@H](Cc1ccccc1)C(=O)NC(C)(C)C(=O)N[C@@H](CCCCN)C(=O)N[C@@H](Cc1c[nH]c2ccccc12)C(=O)N[C@@H](CC(C)C)C(=O)N[C@@H](CCC(=O)O)C(=O)N[C@@H](CC(=O)O)C(=O)N[C@@H](CCC(=O)O)C(=O)N1CCC[C@H]1C(=O)N[C@@H](CO)C(=O)N[C@@H](CO)C(=O)NCC(=O)N[C@@H](C)C(=O)N1CCC[C@H]1C(=O)N1CCC[C@H]1C(=O)N1CCC[C@H]1C(=O)N[C@@H](CO)C(=O)O [Compound A9] (H-YSHGTFTSDYSKYLDK([γGlu-γGlu-AEEA-C20 diacid])KYAQEF[Aib]KWLEDEPSSGAPPPS-OH; N-terminus assumed)	0.0251	> 1
CC(C)C[C@H](NC(=O)[C@H](Cc1ccc(O)cc1)NC(=O)[C@H](CCCCN)NC(=O)[C@H](CO)NC(=O)[C@H](Cc1ccc(O)cc1)NC(=O)[C@H](CC(=O)O)NC(=O)[C@H](CO)NC(=O)[C@@H](NC(=O)[C@H](Cc1ccccc1)NC(=O)[C@@H](NC(=O)CNC(=O)[C@H](Cc1c[nH]cn1)NC(=O)[C@H](CO)NC(=O)[C@@H](N)Cc1ccc(O)cc1)[C@@H](C)O)[C@@H](C)O)C(=O)N[C@@H](CC(=O)O)C(=O)N[C@@H](CCCCNC(=O)CC[C@H](NC(=O)CC[C@H](NC(=O)COCCOCCNC(=O)CCCCCCCCCCCCCCCCCCC(=O)O)C(=O)O)C(=O)O)C(=O)N[C@@H](CCCCN)C(=O)N[C@@H](Cc1ccc(O)cc1)C(=O)N[C@@H](C)C(=O)N[C@@H](CCC(N)=O)C(=O)N[C@@H](CCC(=O)O)C(=O)N[C@@H](Cc1ccccc1)C(=O)NC(C)(C)C(=O)N[C@@H](CO)C(=O)N[C@@H](Cc1c[nH]c2ccccc12)C(=O)N[C@@H](CC(C)C)C(=O)N[C@@H](CCC(=O)O)C(=O)N[C@@H](CC(=O)O)C(=O)N[C@@H](CCC(=O)O)C(=O)N1CCC[C@H]1C(=O)N[C@@H](CO)C(=O)N[C@@H](CO)C(=O)NCC(=O)N[C@@H](C)C(=O)N1CCC[C@H]1C(=O)N1CCC[C@H]1C(=O)N1CCC[C@H]1C(=O)N[C@@H](CO)C(=O)O [Compound A10] (H-YSHGTFTSDYSKYLDK([γGlu-γGlu-AEEA-C20 diacid])KYAQEF[Aib]SWLEDEPSSGAPPPS-OH; N-terminus assumed)	0.0398	> 1
CC(C)C[C@H](NC(=O)[C@H](Cc1ccc(O)cc1)NC(=O)[C@H](CCCCN)NC(=O)[C@H](CO)NC(=O)[C@H](Cc1ccc(O)cc1)NC(=O)[C@H](CC(=O)O)NC(=O)[C@H](CO)NC(=O)[C@@H](NC(=O)[C@H](Cc1ccccc1)NC(=O)[C@@H](NC(=O)CNC(=O)[C@H](Cc1c[nH]cn1)NC(=O)[C@H](CO)NC(=O)[C@@H](N)Cc1ccc(O)cc1)[C@@H](C)O)[C@@H](C)O)C(=O)N[C@@H](CC(=O)O)C(=O)N[C@@H](CCCCNC(=O)CC[C@H](NC(=O)CC[C@H](NC(=O)COCCOCCNC(=O)CCCCCCCCCCCCCCCCCCC(=O)O)C(=O)O)C(=O)O)C(=O)N[C@@H](CCCCN)C(=O)N[C@@H](Cc1ccc(O)cc1)C(=O)N[C@@H](C)C(=O)N[C@H]1CCCCNC(=O)CC[C@@H](C(=O)N[C@@H](Cc2c[nH]c3ccccc23)C(=O)N[C@@H](CC(C)C)C(=O)N[C@@H](CCC(=O)O)C(=O)N[C@@H](CC(=O)O)C(=O)N[C@@H](CCC(=O)O)C(=O)N2CCC[C@H]2C(=O)N[C@@H](CO)C(=O)N[C@@H](CO)C(=O)NCC(=O)N[C@@H](C)C(=O)N2CCC[C@H]2C(=O)N2CCC[C@H]2C(=O)N2CCC[C@H]2C(=O)N[C@@H](CO)C(=O)O)NC(=O)[C@H](C(C)C)NC(=O)[C@H](Cc2ccccc2)NC(=O)[C@H](CCC(=O)O)NC1=O [Compound A11] (H-YSHGTFTSDYSKYLDK([γGlu-γGlu-AEEA-C20 diacid])KYAKEFVEWLEDEPSSGAPPPS-OH; lactam 20-24)	0.002	> 1

From patent US20240228572A1 (i2o Therapeutics, Inc., priority 2020, published 2024)
